This note sets out measurements from US20230210110A1, “METHOD FOR INDUCING ENVIRONMENTAL STRESS TOLERANCE IN PLANTS” (AJINOMOTO CO., INC., priority 2020, published 2023).

This experiment deals with RD29B and MAPKKK18. Briefly: Effect of Lys derivatives and nitrogen-containing compounds on induction of environmental stress tolerance genes by ABA (activity level). In kind it is in vivo, Arabidopsis thaliana. The settings on record: for Activity level: total of induction activities of RD29B and MAPKKK18 with 1 mM compound and 0.25 μM ABA, relative to ABA alone taken as 1, >1 enhanced, 1 no effect, <1 suppressed; for effect on the gene expression inducing activity of ABA: 1 mM compound with 0.25 μM ABA. The procedure:
Four to six young Arabidopsis thaliana plants grown on a 50% concentration MS (Murashige-Skoog) agar medium were transferred to a 6-well plate containing a 50% concentration MS (Murashige-Skoog) liquid medium and pre-cultured for 16 hours, then added with a treatment solution containing each amino acid alone or a treatment solution containing a combination of each amino acid and ABA, and left for 6 hours. Then, RNA was then isolated from the plants with a nucleic acid purification kit (Promega, Maxwell (registered trademark) 16 LEV simplyRNA Tissue Kit). Then, cDNA was synthesized with a cDNA synthesis reagent for real-time PCR (Toyobo, ReverTra Ace (registered trademark) qPCR RT Master Mix).
GAPDH is a glyceraldehyde-3-phosphate dehydrogenase gene and was selected as an internal standard.
Lys or each Lys derivative is used for treatment at 1 mM and ABA at 0.25 μM.

Take `O=C(NCCCCCNC(=O)c1ccccc1)c1ccccc1` [II-2]: the Activity level was more than 1.

Consider `O=C(NCCC[C@H](NC(=O)c1ccccc1)C(=O)O)c1ccccc1` [compound 6], for which the Activity level is more than 1.

Consider `COC(=O)[C@@H](N)CCCCN` [compound 7], for which the “effect on the gene expression inducing activity of ABA” value (shortened to “effect”) is reported as “no effect” and the Activity level was 1.

Regarding `CC(=O)NCCCC[C@H](N)C(=O)O` [compound 8], the Activity level is reported as less than 1.

Take `N[C@@H](CCCCNC(=O)c1ccccc1)C(=O)O` [compound 9]: the Activity level is recorded as less than 1.

On to `N[C@H](CCCCNC(=O)c1ccccc1)C(=O)O` [compound 10], for which the Activity level was less than 1.

For `N[C@@H](CCCCNC(=O)OCc1ccccc1)C(=O)O` [compound 11], the “effect” value is listed as “no effect” and the Activity level stood at 1.

Take `CC(C)(C)OC(=O)NCCCC[C@H](N)C(=O)O` [compound 12]: the Activity level is given as more than 1.

Consider `N[C@H](CCCCNC(=O)OCc1ccccc1)C(=O)O` [compound 13], for which the Activity level is given as less than 1.

On to `CN(C)CCCC[C@H](N)C(=O)O` [compound 14], for which the Activity level is given as more than 1.

Consider `CC(=O)N[C@@H](CCCCN)C(=O)O` [compound 15], for which the Activity level is less than 1.

As to `NCCCC[C@H](NC(=O)/C=C/c1ccccc1)C(=O)O` [compound 16], the Activity level is listed as less than 1.

In the case of `NCCCC[C@H](NC(=O)OCc1ccccc1)C(=O)O` [compound 17], the Activity level is more than 1.

In the case of `O=C(NCCC[C@H](NC(=O)OCc1ccccc1)C(=O)O)OCc1ccccc1` [compound 18], the Activity level is listed as more than 1.

Take `CC(C)(C)OC(=O)NC[C@H](NC(=O)OCc1ccccc1)C(=O)O` [compound 19]: the Activity level is on record as more than 1.

Consider `CC(C)(C)OC(=O)NCC[C@H](NC(=O)OCc1ccccc1)C(=O)O` [compound 20], for which the Activity level was more than 1.

In the case of `CCC(C)C(=O)C(=O)N[C@@H](CCCCNC(=N)N)C(=O)O` (some centres unmarked) [compound 21], the Activity level is recorded as less than 1.

For `COC(=O)[C@H](CCCCN)NC(=O)OCc1ccccc1` [compound 22], the Activity level is on record as more than 1.

Take `NCCCC[C@H](NC(=O)OCc1ccccc1)C(=O)OCc1ccccc1` [compound 23]: the Activity level is reported as less than 1.

Regarding `COC(=O)[C@@H](N)CCCCNC(=O)OCc1ccccc1` [compound 24], the Activity level was more than 1.

As to `CC(C)(C)OC(=O)[C@@H](N)CCCCNC(=O)OCc1ccccc1` [compound 25], the “effect” value was “no effect” and the Activity level is 1.

In the case of `N[C@@H](CCCCNC(=O)OCc1ccccc1)C(=O)OCc1ccccc1` [compound 26], the Activity level is on record as less than 1.

Take `COC(=O)[C@@H](N)CCCCNC(=O)OC(C)(C)C` [compound 27]: the Activity level is more than 1.

Turning to `CC(C)(C)OC(=O)NCCCC[C@H](N)C(=O)OC(C)(C)C` [compound 28], the “effect” value is “no effect” and the Activity level was 1.

Consider `COC(=O)[C@H](CCCCNC(=O)OC(C)(C)C)NC(=O)OCc1ccccc1` [compound 29], for which the Activity level is given as more than 1.

As to `O=C(NCCCC[C@H](NC(=O)c1ccccc1)C(=O)O)c1ccccc1` [compound 30], the Activity level is on record as less than 1.

Regarding `CC(C)(C)OC(=O)N[C@@H](CCCCNC(=O)OCc1ccccc1)C(=O)O` [compound 31], the Activity level is more than 1.

With `CC(C)(C)OC(=O)NCCCC[C@H](NC(=O)OCc1ccccc1)C(=O)O` [compound 32], the Activity level was more than 1.

For the compound `O=C(NCCCC[C@H](NC(=O)OCc1ccccc1)C(=O)O)OCc1ccccc1` [compound 33], the Activity level was more than 1.

As to `O=C(NCCCC[C@@H](NC(=O)OCc1ccccc1)C(=O)O)OCc1ccccc1` [compound 34], the Activity level was more than 1.

With `O=C(N[C@@H](CCCCNC(=O)c1ccccc1)C(=O)O)OCc1ccccc1` [compound 35], the Activity level is more than 1.
